Test results from ChEMBL document CHEMBL1158633, “Synthesis and biological activity of alpha-glucosyl C24:0 and C20:2 ceramides” (2010).

Test system: iNKT
Assay: Induction of cellular expansion in human iNKT cells at 250 nM after 8 days
Assay type: functional

Structure (SMILES) | Activity [%]
CCCCC/C=C\C/C=C\CCCCCCCCCC(=O)N[C@@H](CO[C@H]1O[C@H](CO)[C@@H](O)[C@H](O)[C@H]1O)[C@H](O)[C@H](O)CCCCCCCCCCCCCC | 33
CCCCC/C=C\C/C=C\CCCCCCCCCC(=O)N[C@@H](CO[C@H]1O[C@H](CO)[C@H](O)[C@H](O)[C@H]1O)[C@H](O)[C@H](O)CCCCCCCCCCCCCC | 37
CCCCCCCCCCCCCCCCCCCCCCCCCC(=O)N[C@@H](CO[C@H]1O[C@H](CO)[C@H](O)[C@H](O)[C@H]1O)[C@H](O)[C@H](O)CCCCCCCCCCCCCC [RGI-7000] | 34
